# Results published in patent US8680110B2, “P2X4 receptor antagonist” (Nippon Chemiphar Co., Ltd., priority 2010, dated 2014).
# Structures can show the parent of a compound that is named as a salt.
# Target: T1, human P2X4 receptors (Homo sapiens, UniProt Q99571)
# T1 sequence (Q99571 1-388): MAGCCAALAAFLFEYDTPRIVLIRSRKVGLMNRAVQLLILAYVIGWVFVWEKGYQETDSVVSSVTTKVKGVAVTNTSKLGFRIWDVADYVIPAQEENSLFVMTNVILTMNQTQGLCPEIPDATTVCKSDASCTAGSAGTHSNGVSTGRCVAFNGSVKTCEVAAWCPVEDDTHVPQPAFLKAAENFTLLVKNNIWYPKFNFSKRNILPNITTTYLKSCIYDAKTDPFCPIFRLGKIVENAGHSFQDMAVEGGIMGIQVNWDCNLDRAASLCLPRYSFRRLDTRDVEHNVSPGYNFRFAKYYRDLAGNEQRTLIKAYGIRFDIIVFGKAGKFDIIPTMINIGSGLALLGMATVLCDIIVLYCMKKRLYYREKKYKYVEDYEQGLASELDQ
# Test: P2X4 receptor antagonism, intracellular calcium assay (Fura-2 AM) in 1321N1 cells
# Assay type: cell-based
# Settings: 1321N1 cells stably expressing human P2X4 receptors; compound added 15 minutes before ATP; ATP-induced calcium influx; read-out: Inhibition activities (IC50 μM)
# Description: 1321N1 cells stably expressing human P2X4 receptors were plated in 96-well assay plate and cultured 24 hours at 37° C. in an atmosphere of 5% CO2 for intracellular calcium assay. Fura-2 AM calcium fluorescent indicator was used for the intracellular calcium assay. Fura-2 AM was dissolved in an assay buffer, and the solution was loaded onto cells. The obtained plate was used for fluorescent assay. Test compounds were treated to cells 15 minutes before the addition of ATP, and the response to intracellular calcium influx induced by addition of ATP was monitored by a micro plate reader. The fluorescence ratio of excitations wavelengths of 340 nm and 380 nm was used as the index of intracellular calcium change. The inhibition activities of the test compounds were calculated by comparison with the absence of the test compound (control).
# P2X4 receptor antagonism of the compound of the present invention was measured as described below. […]
# Test compounds were treated to cells 15 minutes before the addition of ATP, and the response to intracellular calcium influx induced by addition of ATP was monitored by a micro plate reader. The fluorescence ratio of excitations wavelengths of 340 nm and 380 nm was used as the index of intracellular calcium change. The inhibition activities of the test compounds were calculated by comparison with the absence of the test compound (control).
structure (smiles),measurement,value
"O=c1nc(-c2cccc(-c3nnn[nH]3)c2)c2ccc3ccccc3c2[nH]1 [Example 2, 4-[3-(1H-Tetrazol-5-yl)phenyl]-1H-benzo[h]quinazolin-2-one sodium salt]",IC50,0.16 µM
